Literature values, collected in patent US20070281995A1, “Creatine analog prodrugs, compositions and uses thereof” (XenoPort, Inc., priority 2006, published 2007).
Read-outs that look alike come from different tables or passages of the source.

Key:
[1] = not given; remark: listed apart in the source
[2] = healthy volunteers, oral creatine administration
[3] = animals fed a diet containing up to 1%

CN(CC(=O)O)C(=N)N.O [creatine monohydrate]
adverse side effects (athletes and body builders, 2-3 gm/day): without adverse side effects

CN(CC(=O)O)C(=N)NP(=O)(O)O [creatine phosphate]
adverse side effects (patients with cardiac diseases, intravenous injection up to 8 gm/day): without adverse side effects

CN(CC(=O)O)C(=N)N [creatine, Creatine]
overall increase in creatine phosphate levels ([1]; creatine supplementation, typically takes weeks): < 50%
duration of increases in tissue creatine phosphate levels ([1]; following oral creatine supplementation): > 14 days
increase of cerebral creatine phosphate [2]: about 10%

NC1=NCCN1CC(=O)O [cyclocreatine]
adverse effects [3]: do not exhibit adverse effects
